Measured values taken from article PMC8998611, “Identification of Novel GSK-3β Hits Using Competitive Biophysical Assays” (International Journal of Molecular Sciences, 2022).

Legend:
GSK-3β [1] = biological target: T1, GSK-3β (Homo sapiens, UniProt P49841); test: LANCE Ultra TR-FRET GSK-3β kinase inhibition assay (ULight-GS phosphorylation); type: biochemical; settings: 1 µM ATP, 50 nM ULight-GS; for IC50: dose-response 30 nM to 200 μM
Procedure: To assess if the identified GSK-3β binders were also able to affect kinase activity, the inhibitory activity of the four identified hit compounds was tested at four concentrations (1-5-50-100 μM) using the LANCE® Ultra (Perkin Elmer, Waltham, MA, USA) time-resolved fluorescence resonance energy transfer (TR-FRET) assay. The assay measures the ability of GSK-3β to phosphorylate a specific substrate, human Muscle Glycogen Synthase (ULight-GS ([…]/pSer657)), in the presence and absence of the identified ligands. […] Specifically, IC50 values were (14.81 ± 0.55) μM and (15.25 ± 1.34) μ[…] and G12, respectively (Figure 5). The GSK-3β kinase assay was run in 384 well microplates (OptiPlate^TM-384, White, Perkin Elmer) with a total reaction volume of 20 μL. The inhibitory potency against human recombinant GSK-3β was evaluated using the LANCE® Ultra (Perkin Elmer) time-resolved fluorescence resonance energy transfer (TR-FRET) by measuring the phosphorylation of the specific substrate, human Muscle Glycogen Synthase (ULight-GS ([…]/pSer657)), according to the manufacturer's instructions. […] The reaction was initiated by adding 50 nM of the substrate ULight-[…] and 1 μM ATP. The mixture was incubated for 1 h at 23 °C. Afterward, the reaction was stopped by adding 8 mM EDTA. After 5 min, the anti-phospho-GS antibody labeled with europium chelate was added. 1 h later, the kinase reaction was monitored by irradiation at 320 nm, and the fluorescence was measured at 615 and 665 nm, using EnVision 2014 Multilabel Reader (PerkinElmer). The calculated signal ratio at 665/615 nm was proportional to the extent of ULight-GS phosphorylation. The compounds were screened at four concentrations (1-5-50-100 μM). For selected compounds, dose-response curves, ranging from 30 nM up to 200 μM, were performed. Dose-response curves were run in three independent experiments, each performed in three technical replicates. IC50 values (concentrations causing half-maximal response or enzyme inhibition) were determined by non-linear regression analysis of the Log [concentration]/response curves generated with mean replicate values using a four parameter Hill equation curve fitting with GraphPad Prism 8 (GraphPad Software Inc., San Diego, CA, USA).

GSK-3β [2] = biological target: T1, GSK-3β; test: MicroScale Thermophoresis (MST) binding to fluorescently labeled GSK-3β; parameters: made in house; host or cells: Sf9 cells; settings: preincubation with 3 mM AMP-PNP; data not shown
Procedure: MicroScale Thermophoresis (MST) experiments were conducted in triplicate on a Monolith NT.115 Pico system (NanoTemper Technologies, Munich, Germany).
The MST technique was used both for hit binding and for affinity (kd) determination.
GSK-3β was labeled with the His-tag RED-tris-NTA label 2nd generation (Nanotemper Technologies) following Nanotemper technology protocol. The 100 nM stock labeled protein solution was used at 20 nM concentration to roughly start from 7000 fluorescence counts in each screening experiment.
GSK-3β was labelled also using RED-NHS ammine dye (Nanotemper Technologies) following the manufacturer’s protocol. The obtained ammine-labeled protein was used at 20 nM concentration to roughly start the experiments from 6000 fluorescence counts.
Binding tests were performed on eight capillaries with a constant concentration of the labeled protein (20 nM), to detect the effect induced by the compounds on the fluorescence signal (in the presence or absence of 3 mM AMP-PNP). Protein in assay buffer in the presence of 5% DMSO was the negative control.
Assay buffer: Phosphate buffer 0.1 M pH 7.2, 5 mM MgCl2, 0.001% Tween80, 0.1% PEG8000. Experiments were performed in triplicates. Data elaboration and plots were performed using MO.Control Nanotemper software.

T1 sequence (P49841 whole entry): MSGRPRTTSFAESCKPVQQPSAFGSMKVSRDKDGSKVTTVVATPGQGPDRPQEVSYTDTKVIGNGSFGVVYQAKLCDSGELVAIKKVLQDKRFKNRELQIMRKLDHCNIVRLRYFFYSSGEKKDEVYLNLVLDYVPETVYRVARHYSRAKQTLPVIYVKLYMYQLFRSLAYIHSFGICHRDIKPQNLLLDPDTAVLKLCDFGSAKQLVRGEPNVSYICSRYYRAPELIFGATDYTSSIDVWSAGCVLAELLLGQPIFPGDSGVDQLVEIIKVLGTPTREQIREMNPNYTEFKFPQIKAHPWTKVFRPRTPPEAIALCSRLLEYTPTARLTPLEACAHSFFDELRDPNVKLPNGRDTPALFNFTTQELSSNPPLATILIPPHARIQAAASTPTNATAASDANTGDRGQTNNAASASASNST

IC50 (GSK-3β [1]) [µM] | inhibition at 1 µM (GSK-3β [1]; 1 μM compound, mean ± SD) [%] | inhibition at 5 µM (GSK-3β [1]; 5 μM compound, mean ± SD) [%] | inhibition at 50 µM (GSK-3β [1]; 50 μM compound, mean ± SD) [%] | inhibition at 100 µM (GSK-3β [1]; 100 μM compound, mean ± SD) [%] | MST binding check, displacement assay (GSK-3β [2]) | Structure (SMILES)
38.1 | – | – | – | – | – | O=C(Nc1ccccn1)C1CCN(C(=O)COc2ccccc2F)C1 (stereo not shown) [ARN1484]
27.2 | – | – | – | – | – | CN(C)S(=O)(=O)N1CC(c2nc(N)ncc2-c2ccc(F)cc2)C1 [ARN9133]
– | 2.5 ± 0.9 | 4.9 ± 1.5 | 27.1 ± 4.9 | 46.6 ± 6 | maintained their ability to bind GSK-3β | O=C(NCCn1ncc(-c2ccncc2)c1C1CC1)c1ccccc1F [B3]
